Source: the CheMixHub ionic liquid set

Experiment: xn = mol fraction of the nth substance listed

CCC[N+](C)(C)C.O=S(=O)([N-]S(=O)(=O)C(F)(F)F)C(F)(F)F + CCC[N+]1(C)CCCCC1.O=S(=O)([N-]S(=O)(=O)C(F)(F)F)C(F)(F)F
101.3 kPa
Conditions | viscosity [mPa·s]
283.15 K, x1 = 0.6 | 248
283.15 K, x1 = 0.8 | 201
293.15 K, x1 = 0.6 | 134
293.15 K, x1 = 0.8 | 113
308.15 K, x1 = 0.4 | 71
308.15 K, x1 = 0.6 | 64
313.15 K, x1 = 0.8 | 45.9
318.15 K, x1 = 0.4 | 46.4
318.15 K, x1 = 0.6 | 42.3
343.15 K, x1 = 0.4 | 20.2
343.15 K, x1 = 0.8 | 17.5
348.15 K, x1 = 0.8 | 15.4
348.15 K, x1 = 1 | 14.6

CCCC[n+]1ccn(C)c1.N#C[N-]C#N + F[B-](F)(F)F.[Li+]
101 kPa, x1 = 1
Conditions | electrical conductivity [S/m]
288.15 K | 0.596
298.15 K | 0.925
333.15 K | 2.77

CCCC[n+]1ccn(C)c1.N#C[N-]C#N + [I-].[Li+]
101 kPa, x1 = 1
Conditions | electrical conductivity [S/m]
288.15 K | 0.611
298.15 K | 0.883
333.15 K | 2.18

CCCC[n+]1ccn(C)c1.N#C[S-] + CCCCCCO
101 kPa
Conditions | viscosity [mPa·s]
298.15 K, x2 = 0.1505 | 36.2
308.15 K, x2 = 0.1505 | 24.6
308.15 K, x2 = 0.453 | 13.1
308.15 K, x2 = 0.9102 | 4.42
318.15 K, x2 = 0.6307 | 6.91
318.15 K, x2 = 0.9102 | 3.41
328.15 K, x2 = 0.6962 | 4.59
328.15 K, x2 = 0.7583 | 3.92
328.15 K, x2 = 0.8512 | 3.17
338.15 K, x2 = 0.0424 | 12
338.15 K, x2 = 0.3093 | 8.15
338.15 K, x2 = 0.453 | 6.07
338.15 K, x2 = 0.5773 | 4.76
348.15 K, x2 = 0.0424 | 9.56

CCCO + CC[n+]1ccn(CCOC)c1.O=S(=O)([O-])C(F)(F)F
101 kPa, x2 = 0
Conditions | viscosity [mPa·s]
288.15 K | 2.475
293.15 K | 2.185
298.15 K | 1.937
303.15 K | 1.723
308.15 K | 1.537
313.15 K | 1.377
318.15 K | 1.235

CC[N+](CC)(CC)CC.[Cl-] + CCCCCCCCCC(=O)O
100 kPa, x1 = 0.333
Conditions | electrical conductivity [S/m] | viscosity [mPa·s]
293.15 K | 0.0223 | 275
303.15 K | 0.0338 | 185
313.15 K | 0.0498 | 128
323.15 K | 0.0718 | 90
333.15 K | 0.101 | 64.9

CCCC[n+]1ccn(C)c1.N#C[N-]C#N + O=[N+]([O-])[O-].[Li+]
electrical conductivity [S/m], 101 kPa
Conditions | x1 = 0.7634 | x1 = 0.8104 | x1 = 0.859 | x1 = 0.9137 | x1 = 0.9799 | x1 = 1
288.15 K | – | 0.155 | 0.246 | 0.377 | 0.599 | 0.596
298.15 K | 0.193 | 0.272 | 0.417 | 0.612 | 0.924 | 0.925
333.15 K | 0.902 | 1.17 | 1.47 | 1.95 | 2.6 | 2.77

CCCO + C[C@H](N)C(=O)[O-].C[N+](C)(C)CCO
100 kPa, x2 = 0
Conditions | viscosity [mPa·s]
288.12 K | 2.19
289.34 K | 2.13
290.54 K | 2.07
291.73 K | 2
292.91 K | 1.95
294.09 K | 1.89
295.27 K | 1.84
296.45 K | 1.78
297.63 K | 1.73
298.8 K | 1.68
299.98 K | 1.63
301.16 K | 1.58
302.33 K | 1.52
303.51 K | 1.48
304.68 K | 1.43
305.86 K | 1.38
307.04 K | 1.34
308.21 K | 1.29

C=CC(=O)OC + CCCC[n+]1ccn(C)c1.F[B-](F)(F)F
101 kPa
Conditions | viscosity [mPa·s]
293.15 K, x2 = 0.1387 | 2.163
293.15 K, x2 = 0.9242 | 108.1
298.15 K, x2 = 0 | 0.465
303.15 K, x2 = 0.3354 | 6.16
303.15 K, x2 = 0.4317 | 11.33
308.15 K, x2 = 0.8484 | 39.89
313.15 K, x2 = 0 | 0.36
318.15 K, x2 = 0 | 0.334
318.15 K, x2 = 0.6532 | 12.51
318.15 K, x2 = 0.9242 | 31.5
